According to US12024500B2, “Five-membered ring-substituted pyridazinol compounds and derivatives, preparation methods, herbicidal compositions and applications thereof” (Qingdao Kingagroot Chemical Compound Co., Ltd., priority 2018, dated 2024):

Experiments:
Test in all cases: Post-emergence weed control test (greenhouse pot, spray)
Format in all cases: in vivo
Details in all cases: 3000 g/ha, 3 weeks after spraying
Chenopodiaceae = tested on: Chenopodiaceae
Excerpt: (§1) The activity level standard of harmful plant destruction (i.e. growth inhibition rate) is as follows: • Level 10: completely dead; • Level 9: above 90% growth inhibition rate; • Level 8: above 80% growth inhibition rate; • Level 7: above 70% growth inhibition rate; • Level 6: above 60% growth inhibition rate; • Level 5: above 50% growth inhibition rate; • Level 4: above 40% growth inhibition rate; • Level 3: above 30% growth inhibition rate; • Level 2: above 20% growth inhibition rate; • Level 1: below 20% growth inhibition rate; • Level 0: no effect.
(§2) The above described growth inhibition rates are fresh weight inhibition rates.
(§3) Experiment of post-emergence test: monocotyledonous and dicotyledonous weed seeds as well as main crop seeds (i.e., wheat, corn, rice, soybean, cotton, oilseed rape, millet and sorghum) were put into a plastic pot loaded with soil, then covered with 0.5-2 cm of soil, and the seeds were allowed to grow in good greenhouse environment. The test plants were treated at 4-5 leaf stage 2-3 weeks after sowing. The test compounds of the invention were dissolved in acetone respectively, then added with Tween-80 and diluted by a certain amount of water to give solutions with certain concentrations. The solution was sprayed to the plants with a sprayer. The plants were cultured for 3 weeks in the greenhouse.

Rorippa indica = tested on: Rorippa indica
Excerpt: as §1, §2, §3

Veronica polita = tested on: Veronica polita
Excerpt: as §1, §2, §3

Amaranthus retroflexus = tested on: Amaranthus retroflexus
Excerpt: as §1, §2, §3

Cn1ncc(Cl)c1-c1nnc(Cl)cc1O [Compound 77]
10 (Level 10: completely dead): weed control effect (activity level, fresh weight growth inhibition rate), Chenopodiaceae (Chenopodiaceae) | weed control effect (activity level, fresh weight growth inhibition rate), Rorippa indica (Rorippa indica) | weed control effect (activity level, fresh weight growth inhibition rate), Veronica polita (Veronica polita) | weed control effect (activity level, fresh weight growth inhibition rate), Amaranthus retroflexus (Amaranthus retroflexus)

Cn1ncc(C(F)(F)F)c1-c1nnc(Br)cc1O [Compound 95]
10 (Level 10: completely dead): weed control effect (activity level, fresh weight growth inhibition rate), Chenopodiaceae (Chenopodiaceae) | weed control effect (activity level, fresh weight growth inhibition rate), Rorippa indica (Rorippa indica) | weed control effect (activity level, fresh weight growth inhibition rate), Veronica polita (Veronica polita) | weed control effect (activity level, fresh weight growth inhibition rate), Amaranthus retroflexus (Amaranthus retroflexus)

Cn1ncc(F)c1-c1nnc(Cl)cc1O [Compound 76]
10 (Level 10: completely dead): weed control effect (activity level, fresh weight growth inhibition rate), Chenopodiaceae (Chenopodiaceae) | weed control effect (activity level, fresh weight growth inhibition rate), Rorippa indica (Rorippa indica) | weed control effect (activity level, fresh weight growth inhibition rate), Veronica polita (Veronica polita) | weed control effect (activity level, fresh weight growth inhibition rate), Amaranthus retroflexus (Amaranthus retroflexus)

Cn1nc([N+](=O)[O-])cc1-c1nnc(Cl)cc1O [Compound 72]
10 (Level 10: completely dead): weed control effect (activity level, fresh weight growth inhibition rate), Chenopodiaceae (Chenopodiaceae) | weed control effect (activity level, fresh weight growth inhibition rate), Rorippa indica (Rorippa indica) | weed control effect (activity level, fresh weight growth inhibition rate), Veronica polita (Veronica polita) | weed control effect (activity level, fresh weight growth inhibition rate), Amaranthus retroflexus (Amaranthus retroflexus)

CCc1cnn(C)c1-c1nnc(Cl)cc1O [Compound 81]
10 (Level 10: completely dead): weed control effect (activity level, fresh weight growth inhibition rate), Chenopodiaceae (Chenopodiaceae) | weed control effect (activity level, fresh weight growth inhibition rate), Rorippa indica (Rorippa indica) | weed control effect (activity level, fresh weight growth inhibition rate), Veronica polita (Veronica polita) | weed control effect (activity level, fresh weight growth inhibition rate), Amaranthus retroflexus (Amaranthus retroflexus)

Cn1nc(F)cc1-c1nnc(Cl)cc1O [Compound 56]
10 (Level 10: completely dead): weed control effect (activity level, fresh weight growth inhibition rate), Chenopodiaceae (Chenopodiaceae) | weed control effect (activity level, fresh weight growth inhibition rate), Rorippa indica (Rorippa indica) | weed control effect (activity level, fresh weight growth inhibition rate), Veronica polita (Veronica polita) | weed control effect (activity level, fresh weight growth inhibition rate), Amaranthus retroflexus (Amaranthus retroflexus)

Cn1nc(CC(F)(F)F)cc1-c1nnc(Cl)cc1O [Compound 75]
10 (Level 10: completely dead): weed control effect (activity level, fresh weight growth inhibition rate), Chenopodiaceae (Chenopodiaceae) | weed control effect (activity level, fresh weight growth inhibition rate), Rorippa indica (Rorippa indica) | weed control effect (activity level, fresh weight growth inhibition rate), Veronica polita (Veronica polita) | weed control effect (activity level, fresh weight growth inhibition rate), Amaranthus retroflexus (Amaranthus retroflexus)

Oc1cc(Cl)nnc1-c1ccnn1Cc1ccccc1 [Compound 54]
10 (Level 10: completely dead): weed control effect (activity level, fresh weight growth inhibition rate), Chenopodiaceae (Chenopodiaceae) | weed control effect (activity level, fresh weight growth inhibition rate), Rorippa indica (Rorippa indica) | weed control effect (activity level, fresh weight growth inhibition rate), Veronica polita (Veronica polita) | weed control effect (activity level, fresh weight growth inhibition rate), Amaranthus retroflexus (Amaranthus retroflexus)

Cn1nc(C#N)cc1-c1nnc(Cl)cc1O [Compound 71]
10 (Level 10: completely dead): weed control effect (activity level, fresh weight growth inhibition rate), Chenopodiaceae (Chenopodiaceae) | weed control effect (activity level, fresh weight growth inhibition rate), Rorippa indica (Rorippa indica) | weed control effect (activity level, fresh weight growth inhibition rate), Veronica polita (Veronica polita) | weed control effect (activity level, fresh weight growth inhibition rate), Amaranthus retroflexus (Amaranthus retroflexus)

Cc1cnn(C)c1-c1nnc(Cl)cc1O [Compound 80]
10 (Level 10: completely dead): weed control effect (activity level, fresh weight growth inhibition rate), Chenopodiaceae (Chenopodiaceae) | weed control effect (activity level, fresh weight growth inhibition rate), Rorippa indica (Rorippa indica) | weed control effect (activity level, fresh weight growth inhibition rate), Veronica polita (Veronica polita) | weed control effect (activity level, fresh weight growth inhibition rate), Amaranthus retroflexus (Amaranthus retroflexus)
